Patent US8808746B2, “Sustained-release microspheres and methods of making and using same” (Fresenius Kabi USA, LLC, priority 2004, dated 2014)

Experiment: pH versus accelerated stability of octreotide acetate solutions (HPLC)
Assay type: physicochemical
Conditions: 70° C.
Description: For this study, 0.2 mg/mL octreotide acetate solutions in different pH buffers (buffer ionic strength=˜50 mM) were incubated at 70° C. At various designated times, the concentration of octreotide was determined using HPLC. The degradation rate versus time (Kobs) was calculated and plotted.

[1] = pH 4.0, Arginine-Acetate, 0 hours
[2] = pH 4.0, Arginine-Acetate, 24 hours
[3] = pH 4.0, Arginine-Acetate, 48 hours
[4] = pH 4.0, Arginine-Acetate, 69 hours
[5] = pH 5.0, Arginine-Acetate, 0 hours
[6] = pH 5.0, Arginine-Acetate, 24 hours
[7] = pH 5.0, Arginine-Acetate, 48 hours
[8] = pH 5.0, Arginine-Acetate, 69 hours

SMILES: C[C@@H](O)[C@@H]1NC(=O)[C@H](CCCCN)NC(=O)[C@@H](Cc2c[nH]c3ccccc23)NC(=O)[C@H](Cc2ccccc2)NC(=O)[C@@H](NC(=O)[C@H](N)Cc2ccccc2)CSSC[C@@H](C(=O)N[C@H](CO)[C@@H](C)O)NC1=O [Octreotide, octreotide acetate]
- stability in solution (between a pH of 3.0 and 5.0): relatively stable
- Octreotide Assay (pH 2.0, Glycine-HCl, 0 hours): 0.1965 mg/mL
- Octreotide Assay (% Stability) (pH 2.0, Glycine-HCl, 0 hours): (100.00) %
- Octreotide Assay (pH 2.0, Glycine-HCl, 24 hours): 0.1651 mg/mL
- Octreotide Assay (% Stability) (pH 2.0, Glycine-HCl, 24 hours): (84.02) %
- Octreotide Assay (pH 2.0, Glycine-HCl, 48 hours): 0.1425 mg/mL
- Octreotide Assay (% Stability) (pH 2.0, Glycine-HCl, 48 hours): (72.52) %
- Octreotide Assay (pH 2.0, Glycine-HCl, 69 hours): 0.1303 mg/mL
- Octreotide Assay (% Stability) (pH 2.0, Glycine-HCl, 69 hours): (66.31) %
- Octreotide Assay (pH 3.0, Glycine-HCl, 0 hours): 0.2214 mg/mL
- Octreotide Assay (% Stability) (pH 3.0, Glycine-HCl, 0 hours): (100.00) %
- Octreotide Assay (pH 3.0, Glycine-HCl, 24 hours): 0.2136 mg/mL
- Octreotide Assay (% Stability) (pH 3.0, Glycine-HCl, 24 hours): (96.48) %
- Octreotide Assay (pH 3.0, Glycine-HCl, 48 hours): 0.2050 mg/mL
- Octreotide Assay (% Stability) (pH 3.0, Glycine-HCl, 48 hours): (92.59) %
- Octreotide Assay (pH 3.0, Glycine-HCl, 69 hours): 0.2004 mg/mL
- Octreotide Assay (% Stability) (pH 3.0, Glycine-HCl, 69 hours): (90.51) %
- Octreotide Assay [1]: 0.1911 mg/mL
- Octreotide Assay (% Stability) [1]: (100.00) %
- Octreotide Assay [2]: 0.1860 mg/mL
- Octreotide Assay (% Stability) [2]: (97.33) %
- Octreotide Assay [3]: 0.1784 mg/mL
- Octreotide Assay (% Stability) [3]: (93.35) %
- Octreotide Assay [4]: 0.1741 mg/mL
- Octreotide Assay (% Stability) [4]: (91.10) %
- Octreotide Assay [5]: 0.2027 mg/mL
- Octreotide Assay (% Stability) [5]: (100.00) %
- Octreotide Assay [6]: 0.1975 mg/mL
- Octreotide Assay (% Stability) [6]: (97.43) %
- Octreotide Assay [7]: 0.1848 mg/mL
- Octreotide Assay (% Stability) [7]: (91.17) %
- Octreotide Assay [8]: 0.1819 mg/mL
- Octreotide Assay (% Stability) [8]: (89.74) %
- Octreotide Assay (pH 6.0, Phosphate, 0 hours): 0.1934 mg/mL
- Octreotide Assay (% Stability) (pH 6.0, Phosphate, 0 hours): (100.00) %
- Octreotide Assay (pH 6.0, Phosphate, 24 hours): 0.1738 mg/mL
- Octreotide Assay (% Stability) (pH 6.0, Phosphate, 24 hours): (89.87) %
- Octreotide Assay (pH 6.0, Phosphate, 48 hours): 0.1434 mg/mL
- Octreotide Assay (% Stability) (pH 6.0, Phosphate, 48 hours): (74.15) %
- Octreotide Assay (pH 6.0, Phosphate, 69 hours): 0.1276 mg/mL
- Octreotide Assay (% Stability) (pH 6.0, Phosphate, 69 hours): (65.98) %
- Octreotide Assay (pH 7.0, Phosphate, 0 hours): 0.2047 mg/mL
- Octreotide Assay (% Stability) (pH 7.0, Phosphate, 0 hours): (100.00) %
- Octreotide Assay (pH 7.0, Phosphate, 24 hours): 0.1638 mg/mL
- Octreotide Assay (% Stability) (pH 7.0, Phosphate, 24 hours): (80.02) %
- Octreotide Assay (pH 7.0, Phosphate, 48 hours): 0.1247 mg/mL
- Octreotide Assay (% Stability) (pH 7.0, Phosphate, 48 hours): (60.92) %
- Octreotide Assay (pH 7.0, Phosphate, 69 hours): 0.1056 mg/mL
- Octreotide Assay (% Stability) (pH 7.0, Phosphate, 69 hours): (51.59) %
- Octreotide Assay (pH 8.0, Phosphate, 0 hours): 0.1906 mg/mL
- Octreotide Assay (% Stability) (pH 8.0, Phosphate, 0 hours): (100.00) %
- Octreotide Assay (pH 8.0, Phosphate, 24 hours): 0.0793 mg/mL
- Octreotide Assay (% Stability) (pH 8.0, Phosphate, 24 hours): (41.61) %
- Octreotide Assay (pH 8.0, Phosphate, 48 hours): 0.0369 mg/mL
- Octreotide Assay (% Stability) (pH 8.0, Phosphate, 48 hours): (19.36) %
- Octreotide Assay (pH 8.0, Phosphate, 69 hours): 0.0280 mg/mL
- Octreotide Assay (% Stability) (pH 8.0, Phosphate, 69 hours): (14.69) %
